Literature values in US20140200276A1 (iCeutica, Inc., priority 2009, published 2014).

- administered dose excreted in the feces (in vivo): ≤ 3%
- excreted in the urine as 6-O-desmethyl naproxen (in vivo): < 1%
- naproxen from any dose excreted in the urine (total): Approximately 95%
- excreted in the urine as naproxen (unchanged naproxen): < 1%
Structure (SMILES): COc1ccc2cc([C@H](C)C(=O)O)ccc2c1 [naproxen]
